Results reported in patent US20230391786A1, “cGAS INHIBITORS” (Eli Lilly and Company, priority 2022, published 2023).
Read-outs that look alike come from different tables or passages of the source.

Molecular target: recombinant human cGAS (Homo sapiens (Human), UniProt Q8N884)
Assay: In vitro inhibition assay of cGAS activity (cGAMP production, RapidFire mass spectrometry)
Assay type: biochemical
Conditions: 10 nM recombinant human cGAS, 60 nM 75-bp dsDNA, ATP, GTP, room temperature 3 hours
Protocol: Expression and Purification of Recombinant cGAS Protein: Insert cDNA encoding full-length of human cGAS into a modified bacterial expression vector containing an in-frame His6-tag. Induce the E. coli strain BL21(DE3) harboring the plasmid with 1 mM IPTG (Isopropyl β-D-1-thiogalactopyranoside) at 18° C. overnight. Purify the His6-tagged cGAS protein over HISpur Ni-NTA resin in the presence of benzonase and RNase followed by Superdex 200 size exclusion chromatography with storage buffer (50 mM Tris-HCl pH 7.5, 300 mM NaCl, 1 mM DTT, 10% glycerol).
In vitro inhibition assay of cGAS activity: Add a 5 μL mixture containing 10 mM Tris-Cl pH 7.5, 50 mM NaCl, 5 mM MgCl2, 1 mM DTT, 0.01% Triton X-100, 60 nM 75-bp dsDNA, […], 50 μM GTP, 10 nM of recombinant human cGAS, and serial dilutions of a test compound in DMSO to a 384-well plate and incubate at room temperature for 3 hours. Quench the reaction by the addition of 100 μL of stop solution containing 0.1% formic acid and 0.1 μM internal standard (3′3′-difluoro cGAMP). Measure the amount of cGAMP produced by RapidFire 365 mass spectrometry and evaluate inhibitory effect of a compound by plotting percent specific inhibition of cGAMP production against log concentration of the test compound. Calculate IC50 values using a 4-parameter non-linear logistic equation (y=(S0+((SInf−S0)/(1+((qAC50/x)^nHill))))).

[1] = read-out: IC50 (μM), In vitro inhibition assay for Compounds 1-94

Chain of recombinant human cGAS (Q8N884 whole entry): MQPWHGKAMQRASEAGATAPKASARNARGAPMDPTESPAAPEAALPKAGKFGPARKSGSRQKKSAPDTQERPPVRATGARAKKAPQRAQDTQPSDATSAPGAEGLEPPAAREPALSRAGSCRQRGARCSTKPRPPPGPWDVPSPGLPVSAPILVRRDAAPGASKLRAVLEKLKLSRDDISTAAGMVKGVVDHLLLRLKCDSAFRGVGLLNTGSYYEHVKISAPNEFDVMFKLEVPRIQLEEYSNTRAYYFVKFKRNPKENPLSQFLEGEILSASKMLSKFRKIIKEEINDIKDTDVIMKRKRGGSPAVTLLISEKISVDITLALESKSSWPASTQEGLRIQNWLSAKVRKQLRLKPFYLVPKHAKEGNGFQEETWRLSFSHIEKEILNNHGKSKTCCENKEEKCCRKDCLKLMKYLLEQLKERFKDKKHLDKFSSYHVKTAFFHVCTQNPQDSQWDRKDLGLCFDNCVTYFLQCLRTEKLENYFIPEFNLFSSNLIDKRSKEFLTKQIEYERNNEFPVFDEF

SMILES | IC50 (read-out: IC50 (μM), In vitro inhibition assay for Compounds 95-348) [µM] | IC50 [1] [µM]
O[C@@H]1CC[C@@H](Oc2cc(Cl)c(Cl)c3[nH]cc(-c4cn[nH]c4)c23)C1 (racemic) [Example 99, trans-3-((6,7-Dichloro-3-(1H-pyrazol-4-yl)-1H-indol-4-yl)oxy)cyclopentan-1-ol (racemic mixture)] | 0.0593 | –
CC(=O)NC1CCc2c(-c3cn[nH]c3)c3ccc(Cl)c(Cl)c3n2C1 (single isomer, unassigned) [Example 20, N-[3,4-Dichloro-10-(1H-pyrazol-4-yl)-6,7,8,9-tetrahydropyrido[1,2-a]indol-7-yl]acetamide] | – | 0.155
CC(=O)NC1CCc2c(-c3cn[nH]c3)c3ccc(Cl)c(Cl)c3n2C1 (single isomer, unassigned) [Example 21, N-[3,4-Dichloro-10-(1H-pyrazol-4-yl)-6,7,8,9-tetrahydropyrido[1,2-a]indol-7-yl]acetamide] | – | 0.0243
CS(=O)(=O)NC1CCc2c(-c3cn[nH]c3)c3ccc(Cl)c(Cl)c3n2C1 (single isomer, unassigned) [Example 22, N-[3,4-Dichloro-10-(1H-pyrazol-4-yl)-6,7,8,9-tetrahydropyrido[1,2-a]indol-7-yl]methanesulfonamide] | – | 0.0225
CS(=O)(=O)NC1CCc2c(-c3cn[nH]c3)c3ccc(Cl)c(Cl)c3n2C1 (single isomer, unassigned) [Example 23, N-[3,4-Dichloro-10-(1H-pyrazol-4-yl)-6,7,8,9-tetrahydropyrido[1,2-a]indol-7-yl]methanesulfonamide] | – | 0.0887
CC(=O)NC1CCn2c1c(-c1cn[nH]c1)c1ccc(Cl)c(Cl)c12 (single isomer, unassigned) [Example 26, N-(5,6-Dichloro-9-(1H-pyrazol-4-yl)-2,3-dihydro-1H-pyrrolo[1,2-a]indol-1-yl)acetamide] | – | 0.0229

Further lines, results first:

IC50 (read-out: IC50 (μM), In vitro inhibition assay for Compounds 95-348) [µM] | IC50 [1] [µM] | SMILES
– | 0.0117 | O=C(O)C1CCn2c(c(-c3cn[nH]c3)c3ccc(Cl)c(Cl)c32)C1 (single isomer, unassigned) [Example 13, 3,4-Dichloro-10-(1H-pyrazol-4-yl)-6,7,8,9-tetrahydropyrido[1,2-a]indole-8-carboxylic acid]
– | 0.0309 | O=C(O)C1CCn2c(c(-c3cn[nH]c3)c3ccc(Cl)c(Cl)c32)C1 (single isomer, unassigned) [Example 14, 3,4-Dichloro-10-(1H-pyrazol-4-yl)-6,7,8,9-tetrahydropyrido[1,2-a]indole-8-carboxylic acid]
– | 0.289 | OCC1CCn2c(c(-c3cn[nH]c3)c3ccc(Cl)c(Cl)c32)C1 (single isomer, unassigned) [Example 15, [3,4-Dichloro-10-(1H-pyrazol-4-yl)-6,7,8,9-tetrahydropyrido[1,2-a]indol-8-yl]methanol]
– | 0.0674 | OCC1CCn2c(c(-c3cn[nH]c3)c3ccc(Cl)c(Cl)c32)C1 (single isomer, unassigned) [Example 16, [3,4-Dichloro-10-(1H-pyrazol-4-yl)-6,7,8,9-tetrahydropyrido[1,2-a]indol-8-yl]methanol]
– | 0.152 | OC1CCc2c(-c3cn[nH]c3)c3ccc(Cl)c(Cl)c3n2C1 (single isomer, unassigned) [Example 18, 3,4-Dichloro-10-(1H-pyrazol-4-yl)-6,7,8,9-tetrahydropyrido[1,2-a]indol-7-ol]
– | 0.0663 | OC1CCc2c(-c3cn[nH]c3)c3ccc(Cl)c(Cl)c3n2C1 (single isomer, unassigned) [Example 19, 3,4-Dichloro-10-(1H-pyrazol-4-yl)-6,7,8,9-tetrahydropyrido[1,2-a]indol-7-ol]
– | 0.0834 | O=C(O)C1CCCn2c(c(-c3cn[nH]c3)c3ccc(Cl)c(Cl)c32)C1 (single isomer, unassigned) [Example 24, 3,4-Dichloro-11-(1H-pyrazol-4-yl)-7,8,9,10-tetrahydro-6H-azepino[1,2-a]indole-9-carboxylic acid]
– | 0.0412 | O=C(O)C1CCCn2c(c(-c3cn[nH]c3)c3ccc(Cl)c(Cl)c32)C1 (single isomer, unassigned) [Example 25, 3,4-Dichloro-11-(1H-pyrazol-4-yl)-7,8,9,10-tetrahydro-6H-azepino[1,2-a]indole-9-carboxylic acid]
